The structures appear in SMILES notation.

Data set [1] has as its system acute promyelocytic leukemia (APL). Particulars: in vivo; cited from earlier work.
Another data set has as its system NB4 cells. Kind of data set: Differentiation, proliferation and cell cycle of AML cell line. In kind it is cell-based, human. Particulars: 3 days; sodium stibogluconate 250 μg/ml, ATRA 1 μM. How it is done:
Cell lines, cell culture, and cell proliferation assay. The NB4 cell line was a gift from Dr. Dan Lindner of CCF. HL60 and U937 cell lines were purchased from ATCC. These human AML cell lines were maintained in RPMI 1640 medium supplemented with 10% fetal calf serum (FCS). For cell proliferation assays, cells were cultured at 37° C. in 10% FCS medium containing various amounts of sodium stibogluconate for 6 days. The cell numbers in the cultures were determined by an MTT assay as described previously.
Differentiation of AML cell lines was assessed by their ability to produce superoxide as measured by reduction of NBT to formazan and by analysis of expression of CD11b surface marker by flow cytometry. For NBT reduction, each cell suspension was mixed with an equal volume of solution containing 1 mg/ml of NBT (Sigma) and 2.5 μg/ml of TPA for 30 minutes at 37° C. After incubation, cells containing the purple formazan deposits and cells devoid of NBT-reducing activity (white cells) in each sample were determined by counting 200 cells under microscope. We expressed the data as percentage of the following ratio: purple cells/purple+white cells. For analysis of cell surface antigens, cells were exposed to phycoerythrin (PE)−conjugated murine anti-human CD11b (DAKO corp, Carpinteria, Calif.). Analysis of fluorescence was performed on a FACScan flow cytometer (Beckton Dickinson, Mountain View, Calif.). The cell cycle was analyzed by flow cytometry after 3 days of culture of NB4 cells in the absence or presence of sodium stibogluconate (250 μg/ml) or ATRA (1 μM). Briefly, the cells were fixed in cold ethanol and incubated for 30 minutes at 4° C. in the dark with a solution of […] propidium iodide, 1 mg/ml RNase and 0.1% NP-40. Analysis was performed immediately after staining using the CELLFIT program (Becton Dickinson, Mountain View, Calif.).

The subject of data set [2] is Jak2 and Stat5 tyrosine phosphorylation. Nature of the data set: IL-3-induced Jak2/Stat5 tyrosine phosphorylation in Baf3 cells. It is filed as cell-based, murine. How it is done:
For induction of cellular protein phosphorylation by sodium stibogluconate or pervanadate, Baf3 cells were incubated in 0.1% FCS RPMI 1640 medium at 37° C. for 16 hours. The cells were then washed twice in RPMI 1640 medium and incubated with sodium stibogluconate or pervanandate (0.1 mM) for various times prior to termination by lysing cells in cold lysis buffer (50 mM Tris, pH 7.4; 150 mM NaCl; 0.2 mM Na3VO4; 20 mm NaF; 1% NP40; 2 mM PMSF; 20 μg/ml of aprotinin and 1 mM of sodium molybdic acid). To determine the effect of sodium stibogluconate or potassium antimonyl tartrate on IL-3-induced Jak/Stat phosphorylation, Baf3 cells were deprived of the growth factor for 16 hours in 0.1% FCS RPMI 1640 medium and then incubated with or without sodium stibogluconate or potassium antimonyl tartrate for 10 minutes. IL-3 was next added to the cell suspension and incubated for various times. The cells were then harvested and lysed in cold lysis buffer at 4° C. for 45 minutes. Total cell lysates (TCL) were separated in SDS-PAGE gels, blotted onto nitrocellulose membrane (Schleicher & Schuell), probed with specific antibodies and detected using an enhanced chemiluminescence kit (ECL, Amersham).
A functional role of SHP-1 in dephosphorylating the Jak family kinases during cytokine signaling has been documented. To determine whether sodium stibogluconate inhibits SHP-1 in vivo, the effect of the drug on IL-3-induced Jak2 tyrosine phosphorylation in Baf3 cells was examined. Baf3 cells deprived of IL-3 were incubated with or without the drug for 10 minutes and then stimulated with IL-3 for various times. IL-3 induced tyrosine phosphorylation of Jak2 and Stat5 in Baf3 cells in the presence or absence of the drug. However, the phosphotyrosine levels of Jak2 and Stat5 in the presence of the drug were about twice of those in cells without drug treatment as determined by densitometry analysis.

Data set [3] deals with T1, PTP1B (GST fusion protein) (Homo sapiens, UniProt P18031).
T1 construct: purchased Upstate Biotechnology Inc. (UBI, Lake Placid, N.Y.)
T1 sequence (P18031 whole entry, species assumed, the tested form may be a part): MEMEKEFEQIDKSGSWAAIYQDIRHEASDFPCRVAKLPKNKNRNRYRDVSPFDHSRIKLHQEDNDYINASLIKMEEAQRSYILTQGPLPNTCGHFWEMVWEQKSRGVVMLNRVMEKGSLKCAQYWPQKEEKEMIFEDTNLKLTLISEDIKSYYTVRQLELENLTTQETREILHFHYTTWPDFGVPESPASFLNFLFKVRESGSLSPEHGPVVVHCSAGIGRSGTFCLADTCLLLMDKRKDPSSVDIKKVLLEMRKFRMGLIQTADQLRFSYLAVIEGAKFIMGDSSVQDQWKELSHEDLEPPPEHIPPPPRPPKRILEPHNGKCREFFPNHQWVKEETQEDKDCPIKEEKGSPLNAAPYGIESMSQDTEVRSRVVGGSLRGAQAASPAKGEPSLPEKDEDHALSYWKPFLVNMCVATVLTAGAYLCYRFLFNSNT
Kind of data set: In vitro PTPase assay, dephosphorylation of a synthetic phosphotyrosine peptide. It is filed as biochemical. Particulars: at 11,000 μg/ml. How it is done: (§1) In vitro PTPase activities were measured using the commercial protein tyrosine phosphatase assay kit (UBI) following established procedure. […] 100 μl of Malachite Green solution was added and incubated for 5 minutes, and the absorbance at 660 nm was measured after 5 minutes.

The next data set concerns Baf3 cells. Kind of data set: IL-3-induced proliferation of Baf3 cells. In kind it is cell-based, murine. How it is done:
The murine hematopoietic cell line Baf3 was maintained in RPMI 1640 medium supplemented with 10% fetal calf serum (FCS) and murine IL-3 (20 units/ml) as described previously. Human myeloid cell line TF-1 was maintained in RPMI 1640 supplemented with 10% FCS and 40 ng/ml of recombinant human GM-CSF as described previously. For cell proliferation assays, cells were washed in 10% FCS medium twice, resuspended in 10% FCS medium, incubated at 37° C. for 16 hours and then cultured at 37° C. in 10% FCS medium containing various amounts of cytokines, sodium stibogluconate, or PSbT for 3-6 days as indicated. The cell numbers in proliferation assays were determined by an MTT assay or by microscopic cell counting as indicated.

For data set [4], the target named is T2, GST/SHP-1 fusion protein (Mus musculus, UniProt P29351).
T2 construct: made in house
T2 sequence (P29351 whole entry, the tested form may be a part): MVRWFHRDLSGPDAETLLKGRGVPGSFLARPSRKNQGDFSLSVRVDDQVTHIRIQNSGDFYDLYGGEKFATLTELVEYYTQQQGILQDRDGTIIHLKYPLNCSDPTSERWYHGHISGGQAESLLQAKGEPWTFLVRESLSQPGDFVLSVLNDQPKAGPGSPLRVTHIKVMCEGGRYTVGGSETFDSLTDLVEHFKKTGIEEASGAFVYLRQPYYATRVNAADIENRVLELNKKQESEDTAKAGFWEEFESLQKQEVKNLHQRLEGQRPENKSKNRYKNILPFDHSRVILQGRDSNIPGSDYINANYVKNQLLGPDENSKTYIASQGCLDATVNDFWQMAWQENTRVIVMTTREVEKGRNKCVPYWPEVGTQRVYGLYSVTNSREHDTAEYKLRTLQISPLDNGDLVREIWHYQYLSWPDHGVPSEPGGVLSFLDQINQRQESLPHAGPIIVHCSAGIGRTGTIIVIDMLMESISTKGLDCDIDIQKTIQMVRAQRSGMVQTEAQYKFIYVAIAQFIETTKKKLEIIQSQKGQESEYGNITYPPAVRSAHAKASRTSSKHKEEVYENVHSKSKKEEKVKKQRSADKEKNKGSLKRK
Kind of data set: In vitro PTPase assay, dephosphorylation of a synthetic phosphotyrosine peptide. In kind it is biochemical. How it is done:
In vitro PTPase activities were measured using the commercial protein tyrosine phosphatase assay kit (UBI) following established procedure. This assay measures the in vitro dephosphorylation of a synthetic phosphotyrosine peptide (R-R-L-I-E-D-A-E-pY-A-A-R-G). Briefly, 0.01 μg of GST/PTPase fusion protein was incubated in 50 μl of Tris buffer (10 mM Tris, […]) at 22° C. for 10 minutes, followed by addition of 0.2 mM of the phosphotyrosine peptide and incubation at 22° C. for 18 hours. 100 μl of Malachite Green solution was added and incubated for 5 minutes, and the absorbance at 660 nm was measured after 5 minutes.

In the next data set the test system is PTPases. Kind of data set: PTPase inhibition in vitro by ketoconazole. It is filed as biochemical.
The target in another data set is T3, recombinant PRL-3 (Homo sapiens, UniProt O75365).
T3 construct: made in house; host or cells: E. coli DH5α
T3 sequence (O75365 whole entry): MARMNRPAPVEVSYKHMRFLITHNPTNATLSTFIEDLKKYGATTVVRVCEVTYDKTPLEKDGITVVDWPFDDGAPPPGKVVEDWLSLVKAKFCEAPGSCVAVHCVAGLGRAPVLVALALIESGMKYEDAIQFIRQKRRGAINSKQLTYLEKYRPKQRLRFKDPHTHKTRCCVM
Kind of data set: In vitro PTPase assay with recombinant PRL (peptide or DiFMUP substrate). It is filed as biochemical. Conditions: DiFMUP substrate; comparable conditions. How it is done:
as §1
Recombinant GST fusion proteins of human PRL-1, 2 and 3 phosphatases were purified with glutathione beads from DH5α bacteria transformed by pGEX vectors containing cDNA fragments encoding the human PRLs which were generated by RT-PCR from H9 cells and confirmed by sequence analysis. Activities of the purified recombinant PRL proteins in dephosphorylating DiFMUP in the absence or presence of various inhibitors were measured following established procedure.
To assess whether sodium stibogluconate is an inhibitor of oncogenic PRL phosphatases, its effects on the PTPase activity of recombinant PRLs were evaluated by in vitro PTPase assays.

In data set [5] the target is T2, GST/SHP-1 fusion protein. Nature of the data set: Reversibility of SHP-1 inhibition (washing of bead-bound GST/SHP-1). It is filed as biochemical. Conditions: preincubated with inhibitor, then washed. From the text: The beads were then washed 3 times in Tris buffer or without washing prior to in vitro PTPase assays.

Regarding `CC1=C(/C=C/C(C)=C/C=C/C(C)=C/C(=O)O)C(C)(C)CCC1` [ATRA, all-trans-retinoic acid], the “long term APL-free survival” value in data set [1] was “exceeding 75%”. For the same compound, the “cell cycle arrest (DNA content analysis)” value with NB4 cells was “arrested at G1 phase”.
On to `O.O.O.O=C([O-])[C@H]([O-])[C@@H]([O-])C(=O)[O-].O=C([O-])[C@H]([O-])[C@@H]([O-])C(=O)[O-].[K+].[K+].[Sb+3].[Sb+3]` [PSbT, potassium antimonyl tartrate], for which, in [2], the “IL-3-induced Stat5 phosphorylation” value is listed as “failed to enhance”. Besides, in data set [3], the “inhibition of PTP1B” value was “no detectable inhibition”. Also, in the data set on Baf3 cells, the “IL-3-induced proliferation of Baf3 cells” value was “failed to enhance” and the “toxicity against Baf3 cells” value is “marked toxicity”. In addition, the “inhibition of SHP-1” value at GST/SHP-1 fusion protein [4] (at 11,000 μg/ml) is given as “no detectable inhibition”.
With `CC(=O)N1CCN(c2ccc(OCC3COC(Cn4ccnc4)(c4ccc(Cl)cc4Cl)O3)cc2)CC1` (stereo not drawn) [ketoconazole], the “PTPase inhibition in vitro” value with PTPases is reported as “inhibits different PTPases”.
Turning to `[Na+].[Na+].[Na+].[O]=[V]([O-])([O-])[O-]` [sodium orthovanadate], on recombinant PRL-3, the “inhibition of PRL-3 compared with sodium stibogluconate” value was “less effective”.
For `Cc1ccc(C(=O)Nc2ccc(S(=O)(=O)O)c3cc(S(=O)(=O)O)cc(S(=O)(=O)O)c23)cc1NC(=O)c1cccc(NC(=O)Nc2cccc(C(=O)Nc3cc(C(=O)Nc4ccc(S(=O)(=O)O)c5cc(S(=O)(=O)O)cc(S(=O)(=O)O)c45)ccc3C)c2)c1` [suramin], the “reversibility of SHP-1 inhibition” value on GST/SHP-1 fusion protein [5] is “reversible”. On recombinant PRL-3, the “inhibition of PRL-3 compared with sodium stibogluconate” value was “less effective”. Moreover, on GST/SHP-1 fusion protein [4] (under comparable conditions), the “inhibition of SHP-1 compared with sodium stibogluconate” value is listed as “less effective”.

Values taken from patent US7744867B2, “PTPase inhibitors and method of using same” (The Cleveland Clinic Foundation, priority 2001, dated 2010).
